Experiments:
[1] = molecular target: Kallikrein-7 (Homo sapiens, UniProt P49862); assay: Inhibition of thermolysin activated recombinant human C-terminal 10-His tagged KLK7 (E23 to H252 residues) using MOCAc-Arg-Pro-Lys-Pro-Val-Glu-Nva-Trp-Arg-Lys(Dnp)-NH2 as substrate preincubated for 10 mins followed by substrate addition and measured after 30 mins by fluorescence analysis
[2] = molecular target: Kallikrein-7 (Mus musculus) (UniProt Q91VE3); assay: Inhibition of enterokinase activated recombinant mouse C-terminal His6-tagged KLK7 (Gln22 to Arg249 residues) at 100 uM using MOCAc-Arg-Pro-Lys-Pro-Val-Glu-Nva-Trp-Arg-Lys(Dnp)-NH2 as substrate preincubated for 10 mins followed by substrate addition and measured after 30 mins by fluorescence analysis relative to control
[3] = molecular target: Kallikrein-7 (Mus musculus, UniProt Q91VE3); assay: Inhibition of enterokinase activated recombinant mouse C-terminal His6-tagged KLK7 (Gln22 to Arg249 residues) using MOCAc-Arg-Pro-Lys-Pro-Val-Glu-Nva-Trp-Arg-Lys(Dnp)-NH2 as substrate preincubated for 10 mins followed by substrate addition and measured after 30 mins by fluorescence analysis
Sequence of Kallikrein-7 (Mus musculus, UniProt Q91VE3) (Q91VE3 whole entry): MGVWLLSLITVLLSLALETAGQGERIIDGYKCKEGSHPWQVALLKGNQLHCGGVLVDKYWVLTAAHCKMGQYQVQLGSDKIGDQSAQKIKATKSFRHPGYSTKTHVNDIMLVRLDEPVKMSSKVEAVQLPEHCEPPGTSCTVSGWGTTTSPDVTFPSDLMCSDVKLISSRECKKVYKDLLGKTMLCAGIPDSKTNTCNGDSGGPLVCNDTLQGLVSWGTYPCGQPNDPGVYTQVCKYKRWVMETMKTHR

Sequence of Kallikrein-7 (Homo sapiens, UniProt P49862) (P49862 whole entry, the tested form may be a part): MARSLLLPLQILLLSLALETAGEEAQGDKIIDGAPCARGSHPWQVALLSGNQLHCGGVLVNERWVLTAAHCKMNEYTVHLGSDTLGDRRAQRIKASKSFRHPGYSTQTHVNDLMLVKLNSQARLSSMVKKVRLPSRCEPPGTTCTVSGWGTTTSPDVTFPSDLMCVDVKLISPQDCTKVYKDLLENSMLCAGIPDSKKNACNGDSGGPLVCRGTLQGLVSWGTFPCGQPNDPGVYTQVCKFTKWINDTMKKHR
Sequence of Kallikrein-7 (Mus musculus) (Q91VE3 whole entry): as the sequence (Q91VE3 whole entry) above

SMILES | IC50 [1] [µM] | inhibition [2] [%] | IC50 [3] [µM]
CC1=NC(c2cn(S(=O)(=O)c3ccc(Cl)cc3)c3ccccc23)CN1 (configuration not stated) | 5.7 | 17 | 
CC1=NC(c2cn(S(=O)(=O)c3ccc(Cl)cc3)c3ccc(Br)cc23)CN1 (configuration not stated) | 4.7 | 35 | 
CC1=NC(c2cn(S(=O)(=O)c3ccc(Cl)cc3)c3ccccc23)CN1C (configuration not stated) | > 30 |  | 
CC1=NC(c2cn(S(C)(=O)=O)c3ccccc23)CN1 (configuration not stated) | > 100 |  | 
Cc1ccc(S(=O)(=O)n2cc(C3CNC(C4CCCCC4)=N3)c3ccccc32)cc1 (configuration not stated) | > 100 |  | 
Cc1ccc(S(=O)(=O)n2cc(C3CNC(C(C)C)=N3)c3ccccc32)cc1 (configuration not stated) | 70 |  | 
CC1=NC(c2cn(Cc3ccc(Cl)cc3)c3ccccc23)CN1 (configuration not stated) | 22 |  | 
CCC1=NC(c2cn(S(=O)(=O)c3ccc(C)cc3)c3ccccc23)CN1 (configuration not stated) | 24 |  | 
CC1=NC(c2cn(S(=O)(=O)c3cccc(Cl)c3)c3ccccc23)CN1 (configuration not stated) | > 30 | 77 | 

Continued, values first:

IC50 [1] [µM] | inhibition [2] [%] | IC50 [3] [µM] | SMILES
1 |  | 1.3 | CC1=NC(c2cn(S(=O)(=O)c3ccccc3C)c3ccc(C)cc23)CN1 (configuration not stated)
14 |  | 10 | CC1=NC(c2cn(S(=O)(=O)c3c(Cl)cccc3Cl)c3ccc(C)cc23)CN1 (configuration not stated)
30 |  | 10 | CC1=NC(c2cn(S(=O)(=O)c3cccc(Cl)c3)c3ccc(C)cc23)CN1 (configuration not stated)
1.2 |  | 1.5 | CC1=NC(c2cn(S(=O)(=O)c3ccccc3Cl)c3ccc(C)cc23)CN1 (configuration not stated)
6.7 |  | 11 | CC1=NC(c2cn(S(=O)(=O)c3ccccc3C#N)c3ccc(C)cc23)CN1 (configuration not stated)
9.4 |  | > 30 | CC1=NC(c2cn(S(=O)(=O)c3ccc(F)cc3)c3ccc(C)cc23)CN1 (configuration not stated)
4.1 |  | 6.4 | CC1=NC(c2cn(S(=O)(=O)c3ccccc3F)c3ccc(C)cc23)CN1 (configuration not stated)
10 | 14 |  | CC1=NC(c2cn(S(=O)(=O)c3ccc(C)cc3)c3ccccc23)CN1 (configuration not stated)
0.39 |  | 0.4 | CC1=NC(c2cn(S(=O)(=O)c3ccccc3Br)c3ccc(C)cc23)CN1 (configuration not stated)
1.9 | 33 | > 100 | CC1=NC(c2cn(S(=O)(=O)c3ccc(Cl)cc3)c3ccc(C)cc23)CN1 (configuration not stated)
11 |  | 22 | CC1=NC(c2cn(S(=O)(=O)c3cccs3)c3ccc(C)cc23)CN1 (configuration not stated)
17 |  | 15 | CC1=NC(c2cn(S(=O)(=O)c3ccccc3)c3ccc(C)cc23)CN1 (configuration not stated)

From ChEMBL document CHEMBL4371036, “Discovery and structure-activity relationship of imidazolinylindole derivatives as kallikrein 7 inhibitors” (Bioorg Med Chem Lett, 2019)
